# According to patent US9169254B2, “Spiroimidazolone derivative” (Chugai Seiyaku Kabushiki Kaisha, priority 2009, dated 2015):
# Target: T1, human PTH1 receptor (Homo sapiens, UniProt Q03431)
# T1 sequence (Q03431 27-593): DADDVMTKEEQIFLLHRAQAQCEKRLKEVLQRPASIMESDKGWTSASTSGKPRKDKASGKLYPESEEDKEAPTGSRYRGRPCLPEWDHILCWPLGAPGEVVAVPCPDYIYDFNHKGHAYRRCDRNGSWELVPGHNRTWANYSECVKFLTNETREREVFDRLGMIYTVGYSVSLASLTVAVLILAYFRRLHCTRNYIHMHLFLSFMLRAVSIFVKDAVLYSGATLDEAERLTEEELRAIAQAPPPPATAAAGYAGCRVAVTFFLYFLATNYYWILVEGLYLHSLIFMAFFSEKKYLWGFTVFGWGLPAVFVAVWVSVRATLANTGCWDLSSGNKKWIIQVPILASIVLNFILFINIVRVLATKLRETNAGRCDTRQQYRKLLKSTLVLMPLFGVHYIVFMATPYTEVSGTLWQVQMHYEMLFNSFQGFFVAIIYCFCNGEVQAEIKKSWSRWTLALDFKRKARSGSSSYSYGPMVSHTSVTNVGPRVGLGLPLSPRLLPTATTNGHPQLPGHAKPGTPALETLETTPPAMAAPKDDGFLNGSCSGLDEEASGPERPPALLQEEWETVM
# Assay: In vitro cAMP signal activity in HKRK-B7 cells (LLC-PK1 cells overexpressing the human PTH1 receptor)
# Type: cell-based
# Settings: HKRK-B7 cells; compound at 1×10^−3 M; cAMP produced as percentage of that produced by hPTH(1-34) at 100 nM
row,Compound,cAMP production activity (%)
1,"CN1CCN(C(=O)NCc2ccc(/C=C/S(=O)(=O)N3CCC4(CC3)N=C(C3CCCCC3)NC4=O)cc2)CC1 [Compound 567, 4-methyl-piperazine-1-carboxylic acid 4-[(E)-2-(2-cyclohexyl-4-oxo-1,3,8-triaza-spiro[4.5]dec-1-ene-8-sulfonyl)-vinyl]-benzylamide]",24%
2,"CC(=O)Nc1ccc(CCS(=O)(=O)N2CCC3(CC2)N=C(C2CCC(C(F)F)CC2)NC3=O)c(C)c1 (stereo not drawn) [Compound 1075, N-(4-{2-[2-(4-difluoromethyl-cyclohexyl)-4-oxo-1,3,8-triaza-spiro[4.5]dec-1-ene-8-sulfonyl]-ethyl}-3-methyl-phenyl)-acetamide]",69%
3,"CC(=O)N(CCO)c1cc(C)c(/C=C/S(=O)(=O)N2CCC3(CC2)N=C(c2cccc(OC(F)(F)F)c2)NC3=O)cc1F [Compound 717, N-(2-Fluoro-5-methyl-4-{(E)-2-[4-oxo-2-(3-trifluoromethoxy-phenyl)-1,3,8-triaza-spiro[4.5]dec-1-ene-8-sulfonyl]-vinyl}-phenyl)-N-(2-hydroxy-ethyl)-acetamide]",111%
4,"Cc1cc(N(C)C(N)=O)cc(C)c1/C=C/S(=O)(=O)N1CCC2(CC1)N=C(CCCCCCCCC(F)(F)F)NC2=O [Compound 1304, 1-(3,5-dimethyl-4-{(E)-2-[4-oxo-2-(9,9,9-trifluoro-nonyl)-1,3,8-triaza-spiro[4.5]dec-1-ene-8-sulfonyl]-vinyl}-phenyl)-1-methyl-urea]",107%
5,"O=C1NC(CCc2cccc3ccccc23)=NC12CCN(S(=O)(=O)c1cccc(Cl)c1)CC2 [Compound 34, 8-(3-chloro-benzenesulfonyl)-2-(2-naphthalen-1-yl-ethyl)-1,3,8-triaza-spiro[4.5]dec-1-en-4-one]",16%
6,"CCCCCCCCCC1=NC2(CCN(S(=O)(=O)CCc3c(C)cc(N(C)C(N)=O)cc3C)CC2)C(=O)N1 [Compound 817, 1-{3,5-dimethyl-4-[2-(2-nonyl-4-oxo-1,3,8-triaza-spiro[4.5]dec-1-ene-8-sulfonyl)-ethyl]-phenyl}-1-methyl-urea]",111%
7,"CC(=O)N(CCOCCO)c1ccc(CCS(=O)(=O)N2CCC3(CC2)N=C(C2CCC(CCC(F)(F)F)CC2)NC3=O)c(C)c1 (stereo not drawn) [Compound 758, N-[2-(2-hydroxy-ethoxy)-ethyl]-N-[3-methyl-4-(2-{4-oxo-2-[4-(3,3,3-trifluoro-propyl)-cyclohexyl]-1,3,8-triaza-spiro[4.5]dec-1-ene-8-sulfonyl}-ethyl)-phenyl]-acetamide]",98%
8,"O=C(Cc1c[nH]c2cccc(CCS(=O)(=O)N3CCC4(CC3)N=C(C3CCCCC3)NC4=O)c12)NCc1ccccc1 [Compound 420, N-Benzyl-2-{4-[2-(2-cyclohexyl-4-oxo-1,3,8-triaza-spiro[4.5]dec-1-ene-8-sulfonyl)-ethyl]-1H-indol-3-yl}-acetamide]",31%
9,"CC[C@H]1CC[C@H](C2=NC3(CCN(S(=O)(=O)/C=C/c4ccc(N5C(=O)NC(=O)C5C)cc4C)CC3)C(=O)N2)CC1 (stereo partly drawn) [Compound 625, 1-(4-{(E)-2-[2-(4-ethyl-cyclohexyl)-4-oxo-1,3,8-triaza-spiro[4.5]dec-1-ene-8-sulfonyl]-vinyl}-3-methyl-phenyl)-5-methyl-imidazolidine-2,4-dione]",47%
10,"O=C1NC(c2cccc(OC(F)(F)F)c2)=NC12CCN(S(=O)(=O)CCc1ccccc1C(F)(F)F)CC2 [Compound 304, 2-(3-trifluoromethoxy-phenyl)-8-[2-(2-trifluoromethyl-phenyl)-ethanesulfonyl]-1,3,8-triaza-spiro[4.5]dec-1-en-4-one]",47%
11,"COCCCCCCCC1=NC2(CCN([S@TB18](=O)(=O)/C=C/c3c(C)cc(N(C)C(N)=O)cc3C)CC2)C(=O)N1 [Compound 1123, 1-(4-{(E)-2-[2-(7-methoxy-heptyl)-4-oxo-1,3,8-triaza-spiro[4.5]dec-1-ene-8-sulfonyl]-vinyl}-3,5-dimethyl-phenyl)-1-methyl-urea]",122%
12,"O=C1NC(c2ccccc2-c2ccccc2)=NC12CCN(S(=O)(=O)c1cccc(Cl)c1)CC2 [Compound 10, 2-biphenyl-2-yl-8-(3-chloro-benzenesulfonyl)-1,3,8-triaza-spiro[4.5]dec-1-en-4-one]",2.4%
13,"Cc1cc(N(C)C(N)=O)cc(C)c1CCS(=O)(=O)N1CCC2(CC1)N=C(CCCCCCCCCN)NC2=O [Compound 1324, 1-(4-{2-[2-(9-Amino-nonyl)-4-oxo-1,3,8-triaza-spiro[4.5]dec-1-ene-8-sulfonyl]-ethyl}-3,5-dimethyl-phenyl)-1-methyl-urea]",1.0%
14,"Cc1cc2c(/C=C/S(=O)(=O)N3CCC4(CC3)N=C(C3CCCCC3)NC4=O)cccc2[nH]1 [Compound 637, 2-Cyclohexyl-8-[(E)-2-(2-methyl-1H-indol-4-yl)-ethenesulfonyl]-1,3,8-triaza-spiro[4.5]dec-1-en-4-one]",38%
15,"Cc1cc(CN2CCCC2=O)cc(C)c1CCS(=O)(=O)N1CCC2(CC1)N=C(C1CCC(CCC(F)(F)F)CC1)NC2=O (stereo not drawn) [Compound 776, 8-{2-[2,6-dimethyl-4-(2-oxo-pyrrolidin-1-ylmethyl)-phenyl]-ethanesulfonyl}-2-[4-(3,3,3-trifluoro-propyl)-cyclohexyl]-1,3,8-triaza-spiro[4.5]dec-1-en-4-one]",79%
16,"C=CCCOc1cc(C2=NC3(CCN(S(=O)(=O)CCc4ccc(C(=O)N(C)CCOCC=C)cc4C)CC3)C(=O)N2)cc(C(F)(F)F)c1 [Compound 1419, N-(2-Allyloxy-ethyl)-4-{2-[2-(3-but-3-enyloxy-5-trifluoromethyl-phenyl)-4-oxo-1,3,8-triaza-spiro[4.5]dec-1-ene-8-sulfonyl]-ethyl}-3,N-dimethyl-benzamide]",70%
17,"CN1CCN(C(=O)Nc2ccc(/C=C/S(=O)(=O)N3CCC4(CC3)N=C(C3CCCCC3)NC4=O)c(C(F)(F)F)c2)CC1 [Compound 485, 4-methyl-piperazine-1-carboxylic acid {4-[(E)-2-(2-cyclohexyl-4-oxo-1,3,8-triaza-spiro[4.5]dec-1-ene-8-sulfonyl)-vinyl]-3-trifluoromethyl-phenyl}-amide]",7.7%
18,"CC(=O)N(C)c1c(C)cc(CCS(=O)(=O)N2CCC3(CC2)N=C(C2CCC(C)CC2)NC3=O)cc1C (stereo not drawn) [Compound 783, N-(2,6-dimethyl-4-{2-[2-(4-methyl-cyclohexyl)-4-oxo-1,3,8-triaza-spiro[4.5]dec-1-ene-8-sulfonyl]-ethyl}-phenyl)-N-methyl-acetamide]",50%
19,"CCCCC1CCC(C2=NC3(CCN(S(=O)(=O)/C=C/c4c(C)cc(N(CCOCCOC)C(C)=O)cc4C)CC3)C(=O)N2)CC1 (stereo not drawn) [Compound 561, N-(4-{(E)-2-[2-(4-butyl-cyclohexyl)-4-oxo-1,3,8-triaza-spiro[4.5]dec-1-ene-8-sulfonyl]-vinyl}-3,5-dimethyl-phenyl)-N-[2-(2-methoxy-ethoxy)-ethyl]-acetamide]",52%
20,"CC(C)(C)OCC(=O)N1CCCC(C2=NC3(CCN(S(=O)(=O)CCc4cccc5ccccc45)CC3)C(=O)N2)C1 (stereo not drawn) [Compound 439, 2-[1-(2-tert-butoxy-acetyl)-piperidin-3-yl]-8-(2-naphthalen-1-yl-ethanesulfonyl)-1,3,8-triaza-spiro[4.5]dec-1-en-4-one]",33%
21,"Cc1cc(C(=O)N2CCC(OC[C@H](O)CO)CC2)cc(C)c1/C=C/S(=O)(=O)N1CCC2(CC1)N=C(CCCCCCCCC(F)(F)F)NC2=O [Compound 1010, 8-((E)-2-{4-[4-((R)-2,3-Dihydroxy-propoxy)-piperidine-1-carbonyl]-2,6-dimethyl-phenyl}-ethenesulfonyl)-2-(9,9,9-trifluoro-nonyl)-1,3,8-triaza-spiro[4.5]dec-1-en-4-one]",96%
22,"Cc1cc(C(=O)N(C)N(C)C)cc(C)c1CCS(=O)(=O)N1CCC2(CC1)N=C(C1CCC(CCC(F)(F)F)CC1)NC2=O (stereo not drawn) [Compound 787, 3,5-dimethyl-4-(2-{4-oxo-2-[4-(3,3,3-trifluoro-propyl)-cyclohexyl]-1,3,8-triaza-spiro[4.5]dec-1-ene-8-sulfonyl}-ethyl)-benzoic acid trimethylhydrazide]",81%
23,"CC[C@H]1CC[C@H](C2=NC3(CCN(S(=O)(=O)/C=C/c4ccc(N5C(=O)NC(=O)C5(C)C)cc4C)CC3)C(=O)N2)CC1 [Compound 626, 1-(4-{(E)-2-[2-(4-ethyl-cyclohexyl)-4-oxo-1,3,8-triaza-spiro[4.5]dec-1-ene-8-sulfonyl]-vinyl}-3-methyl-phenyl)-5,5-dimethyl-imidazolidine-2,4-dione]",53%
24,"CCCCC1CCC(C2=NC3(CCN(S(=O)(=O)/C=C/c4c(C)cc(N(CCOCCO)C(C)=O)cc4C)CC3)C(=O)N2)CC1 (stereo not drawn) [Compound 716, N-(4-{(E)-2-[2-(4-Butyl-cyclohexyl)-4-oxo-1,3,8-triaza-spiro[4.5]dec-1-ene-8-sulfonyl]-vinyl}-3,5-dimethyl-phenyl)-N-[2-(2-hydroxy-ethoxy)-ethyl]-acetamide]",62%
